Test [1] has as its target T1, KRAS (WT) (Homo sapiens, UniProt P01116).
T1 construct: Biotinylated KRAS protein amino acids 1-169 (produced at Erasca); made in house
In words: In-vitro RAS-RAF binding assay (RRB), HTRF/FRET. The test is classed as biochemical. The note with it: read-out: Inhibition of RAS-RAF Binding (in-vitro) KRAS (WT) IC50. An outline of the steps:
(§1)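 Compounds preincubated with terbium-labelled biotinylated KRAS (aa 1-169, 30 nM) before 60 min SOS1-catalysed exchange to GTPgS. Binding of the d2-labelled cRAF RBD (30 nM) is read as FRET at equilibrium in duplicate. Buffer: 50 mM HEPES pH 7.5, 100 mM NaCl, 1 mM MgCl2, 1 mM DTT.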
A general note: TR-FRET usually uses a lanthanide donor and a delayed reading to cut background.

Test [2] deals with KRAS G12D (Homo sapiens, UniProt P01116, G12D). In words: In-vitro RAS-RAF binding assay (RRB), HTRF/FRET. The test is classed as biochemical. The arrangement: Biotinylated KRAS protein amino acids 1-169 (produced at Erasca); made in house. The note with it: read-out: Inhibition of RAS-RAF Binding (in-vitro) KRAS (G12D) IC50. The gist of the method: as §1
Where [3] appears, read: Table 2, average of multiple runs of each compound.

Where two headings read alike, the source gives them in different places.

KRAS G12D, sequence (P01116 1-169 isoform P01116-2 G12D): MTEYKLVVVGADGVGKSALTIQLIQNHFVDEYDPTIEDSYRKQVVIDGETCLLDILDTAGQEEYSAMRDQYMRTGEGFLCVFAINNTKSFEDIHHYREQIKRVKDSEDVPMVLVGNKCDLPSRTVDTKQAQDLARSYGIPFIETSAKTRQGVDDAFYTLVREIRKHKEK
T1 sequence (P01116 1-169 isoform P01116-2): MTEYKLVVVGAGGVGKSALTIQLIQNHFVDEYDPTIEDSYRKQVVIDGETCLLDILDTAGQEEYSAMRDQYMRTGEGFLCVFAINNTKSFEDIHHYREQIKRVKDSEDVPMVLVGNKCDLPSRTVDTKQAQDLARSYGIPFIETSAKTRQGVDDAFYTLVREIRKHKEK

Take `C[C@H](NC(=O)[C@@H]1C[C@@H](O)CN1C(=O)[C@@H](NC(=O)CCOCCCN1CCC[C@H]1COc1nc(N2CC3CCC(C2)N3)c2cc(Cl)c(-c3ccc(F)c4sc(N)c(C#N)c34)c(F)c2n1)C(C)(C)C)c1ccc(-c2c(F)cc(F)cc2F)cc1` [Example 37, (2S,4R)-1-((2S)-2-(3-(3-((2S)-2-(((7-(2-amino-3-cyano-7-fluorobenzo[b]thiophen-4-yl)-4-(3,8-diazabicyclo[3.2.1]octan-3-yl)-6-chloro-8-fluoroquinazolin-2-yl)oxy)methyl)pyrrolidin-1-yl)propoxy)propanamido)-3,3-dimethylbutanoyl)-4-hydroxy-N—((S)-1-(2′,4′,6′-trifluoro-[1,1′-biphenyl]-4-yl)ethyl)pyrrolidine-2-carboxamide]: the IC50 – broadly, the concentration that inhibits the measured activity by half – in test [1] (setting [3]) is 0.275 µM; in test [2] (setting [3]), 0.0194 µM.

With `C#Cc1c(F)ccc2cc(O)cc(-c3ncc4c(N5CC6CCC(C5)N6)nc(OC[C@@H]5CCCN5CCCOCCC(=O)N[C@H](C(=O)N5C[C@H](O)C[C@H]5C(=O)N[C@@H](C)c5ccc(-c6c(F)cncc6F)cc5)C(C)(C)C)nc4c3F)c12` [Example 27, (2S,4R)-1-((2S)-2-(3-(3-((2S)-2-(((4-(3,8-diazabicyclo[3.2.1]octan-3-yl)-7-(8-ethynyl-7-fluoro-3-hydroxynaphthalen-1-yl)-8-fluoropyrido[4,3-d]pyrimidin-2-yl)oxy)methyl)pyrrolidin-1-yl)propoxy)propanamido)-3,3-dimethylbutanoyl)-N—((S)-1-(4-(3,5-difluoropyridin-4-yl)phenyl)ethyl)-4-hydroxypyrrolidine-2-carboxamide], the IC50 in test [1] (setting [3]) came to 0.0379 µM; in test [2] (setting [3]), 0.0108 µM.

Regarding `C#Cc1c(F)ccc2cc(O)cc(-c3ncc4c(N5CC6CCC(C5)N6)nc(OC[C@@H]5CCCN5CCCOCCC(=O)N[C@H](C(=O)N5C[C@H](O)C[C@H]5C(=O)N[C@@H](C)c5ccc(-c6c(F)c(F)c(F)c(F)c6F)cc5)C(C)(C)C)nc4c3F)c12` [Example 59, (2S,4R)-1-((2S)-2-(3-(3-((2S)-2-(((4-(3,8-diazabicyclo[3.2.1]octan-3-yl)-7-(8-ethynyl-7-fluoro-3-hydroxynaphthalen-1-yl)-8-fluoropyrido[4,3-d]pyrimidin-2-yl)oxy)methyl)pyrrolidin-1-yl)propoxy)propanamido)-3,3-dimethylbutanoyl)-4-hydroxy-N-((S)-1-(2′,3′,4′,5′,6′-pentafluoro-[1,1′-biphenyl]-4-yl)ethyl)pyrrolidine-2-carboxamide], the IC50 in test [1] (setting [3]) was 0.0731 µM; in test [2] (setting [3]), 0.00752 µM.

As to `C#Cc1c(F)ccc2cc(O)cc(-c3ncc4c(N5CC6CCC(C5)N6)nc(OC[C@@H]5CCCN5CCCOCCC(=O)N[C@H](C(=O)N5C[C@H](O)C[C@H]5C(=O)N[C@@H](C)c5ccc(-c6ccc(F)c(F)c6F)cc5)C(C)(C)C)nc4c3F)c12` [Example 55, (2S,4R)-1-((2S)-2-(3-(3-((2S)-2-(((4-(3,8-diazabicyclo[3.2.1]octan-3-yl)-7-(8-ethynyl-7-fluoro-3-hydroxynaphthalen-1-yl)-8-fluoropyrido[4,3-d]pyrimidin-2-yl)oxy)methyl)pyrrolidin-1-yl)propoxy)propanamido)-3,3-dimethylbutanoyl)-4-hydroxy-N-((S)-1-(2′,3′,4′-trifluoro-[1,1′-biphenyl]-4-yl)ethyl)pyrrolidine-2-carboxamide], the IC50 in test [1] (setting [3]) turned out to be 0.067 µM; in test [2] (setting [3]), 0.00979 µM.

For the compound `C#Cc1c(F)ccc2cc(O)cc(-c3ncc4c(N5CC6CCC(C5)N6)nc(OC[C@@H]5CCCN5CCCOCCC(=O)N[C@H](C(=O)N5C[C@H](O)C[C@H]5C(=O)N[C@@H](C)c5ccc(-c6c(C)cccc6C)cc5)C(C)(C)C)nc4c3F)c12` [Example 41, (2S,4R)-1-((2S)-2-(3-(3-((2S)-2-(((4-(3,8-diazabicyclo[3.2.1]octan-3-yl)-7-(8-ethynyl-7-fluoro-3-hydroxynaphthalen-1-yl)-8-fluoropyrido[4,3-d]pyrimidin-2-yl)oxy)methyl)pyrrolidin-1-yl)propoxy)propanamido)-3,3-dimethylbutanoyl)-N-((S)-1-(2′,6′-dimethyl-[1,1′-biphenyl]-4-yl)ethyl)-4-hydroxypyrrolidine-2-carboxamide], the IC50 in test [1] (setting [3]) stood at 0.0534 µM; in test [2] (setting [3]), 0.0094 µM.

As to `CC(C)[C@@H](C(=O)N1C[C@H](O)C[C@H]1C(=O)N[C@@H](C)c1ccc(-c2c(F)cccc2F)cc1)c1cc(OCC2(C)CCN(CCOc3nc(N4CC5CCC(C4)N5)c4cc(Cl)c(-c5ccc(F)c6sc(N)c(C#N)c56)c(F)c4n3)CC2)no1` [Example 66, (2S,4R)-1-((2R)-2-(3-((1-(2-((7-(2-amino-3-cyano-7-fluorobenzo[b]thiophen-4-yl)-4-(3,8-diazabicyclo[3.2.1]octan-3-yl)-6-chloro-8-fluoroquinazolin-2-yl)oxy)ethyl)-4-methylpiperidin-4-yl)methoxy)isoxazol-5-yl)-3-methylbutanoyl)-N-((S)-1-(2′,6′-difluoro-[1,1′-biphenyl]-4-yl)ethyl)-4-hydroxypyrrolidine-2-carboxamide], the IC50 was at least 10 µM in test [1] (setting [3]) and 0.0198 µM in test [2] (setting [3]).

`Cc1ncsc1-c1ccc([C@H](C)NC(=O)[C@@H]2C[C@@H](O)CN2C(=O)[C@@H](NC(=O)CCOCCCN2CCC[C@H]2COc2nc(N3CC4CCC(C3)N4)c3cc(C(F)(F)F)c(-c4ccc(F)c5sc(N)c(C#N)c45)cc3n2)C(C)(C)C)cc1` [Example 80, (2S,4R)-1-((2S)-2-(3-(3-((2S)-2-(((7-(2-amino-3-cyano-7-fluorobenzo[b]thiophen-4-yl)-4-(3,8-diazabicyclo[3.2.1]octan-3-yl)-6-(trifluoromethyl)quinazolin-2-yl)oxy)methyl)pyrrolidin-1-yl)propoxy)propanamido)-3,3-dimethylbutanoyl)-4-hydroxy-N-((S)-1-(4-(4-methylthiazol-5-yl)phenyl)ethyl)pyrrolidine-2-carboxamide]: the values for the IC50 in test [1] (setting [3]) and in test [2] (setting [3]) were 0.0637 µM and 0.0139 µM, respectively.

Consider `Cc1ncsc1-c1ccc([C@H](C)NC(=O)[C@@H]2C[C@@H](O)CN2C(=O)[C@@H](NC(=O)CCCCN2CC[C@H]2COc2nc(N3CC4CCC(C3)N4)c3cc(Cl)c(-c4ccc(F)c5sc(N)c(C#N)c45)c(F)c3n2)C(C)(C)C)cc1` [Example 23, (2S,4R)-1-((2S)-2-(5-((2S)-2-(((7-(2-amino-3-cyano-7-fluorobenzo[b]thiophen-4-yl)-4-(3,8-diazabicyclo[3.2.1]octan-3-yl)-6-chloro-8-fluoroquinazolin-2-yl)oxy)methyl)azetidin-1-yl)pentanamido)-3,3-dimethylbutanoyl)-4-hydroxy-N—((S)-1-(4-(4-methylthiazol-5-yl)phenyl)ethyl)pyrrolidine-2-carboxamide], for which the IC50 was determined as 0.065 µM in test [1] (setting [3]) and 0.0126 µM in test [2] (setting [3]).

Take `Cc1cc(N)nc(-c2c(Cl)cc3c(N4CC5CCC(C4)N5)nc(OC[C@@H]4CCCN4CCCOCCC(=O)N[C@H](C(=O)N4C[C@H](O)C[C@H]4C(=O)NCc4ccc(-c5scnc5C)cc4)C(C)(C)C)nc3c2F)c1C(F)(F)F` [Example 2, (2S,4R)-1-[(2S)-2-[3-[3-[(2S)-2-[[7-[6-amino-4-methyl-3-(trifluoromethyl)-2-pyridyl]-6-chloro-4-(3,8-diazabicyclo[3.2.1]octan-3-yl)-8-fluoro-quinazolin-2-yl]oxymethyl]pyrrolidin-1-yl]propoxy]propanoylamino]-3,3-dimethyl-butanoyl]-4-hydroxy-N-[[4-(4-methylthiazol-5-yl)phenyl]methyl]pyrrolidine-2-carboxamide]: the IC50 is 4.25 µM in test [1] (Table 1), 4.25 µM in test [1] (setting [3]), 0.017 µM in test [2] (Table 1) and 0.0172 µM in test [2] (setting [3]).

On to `C#Cc1c(F)ccc2cc(O)cc(-c3ncc4c(N5CC6CCC(C5)N6)nc(OC[C@@H]5CCCN5CCCOCCC(=O)N[C@H](C(=O)N5C[C@H](O)C[C@H]5C(=O)N[C@@H](C)c5ccc(-c6c(F)cccc6C(F)(F)F)cc5)C(C)(C)C)nc4c3F)c12` [Example 43, (2S,4R)-1-((2S)-2-(3-(3-((2S)-2-(((4-(3,8-diazabicyclo[3.2.1]octan-3-yl)-7-(8-ethynyl-7-fluoro-3-hydroxynaphthalen-1-yl)-8-fluoropyrido[4,3-d]pyrimidin-2-yl)oxy)methyl)pyrrolidin-1-yl)propoxy)propanamido)-3,3-dimethylbutanoyl)-N-((S)-1-(2′-fluoro-6′-(trifluoromethyl)-[1,1′-biphenyl]-4-yl)ethyl)-4-hydroxypyrrolidine-2-carboxamide], for which the IC50 in test [1] (setting [3]) amounted to 0.0383 µM; in test [2] (setting [3]), 0.00768 µM.

Consider `C#Cc1c(F)ccc2cc(O)cc(-c3ncc4c(N5CC6CCC(C5)N6)nc(OC[C@@H]5CCCN5CCCOCCC(=O)N[C@H](C(=O)N5C[C@H](O)C[C@H]5C(=O)N[C@@H](CO)c5ccc(-c6c(F)cccc6F)cc5)C(C)(C)C)nc4c3F)c12` [Example 32, (2S,4R)-1-((2S)-2-(3-(3-((2S)-2-(((4-(3,8-diazabicyclo[3.2.1]octan-3-yl)-7-(8-ethynyl-7-fluoro-3-hydroxynaphthalen-1-yl)-8-fluoropyrido[4,3-d]pyrimidin-2-yl)oxy)methyl)pyrrolidin-1-yl)propoxy)propanamido)-3,3-dimethylbutanoyl)-N—((R)-1-(2′,6′-difluoro-[1,1′-biphenyl]-4-yl)-2-hydroxyethyl)-4-hydroxypyrrolidine-2-carboxamide], for which the results for the half-maximal inhibitory concentration (IC50) in test [1] (setting [3]) and in test [2] (setting [3]) were 0.0303 µM and 0.00823 µM, respectively.

The record behind these values is patent US20240293558A1, “KRAS INHIBITOR CONJUGATES” (Erasca, Inc., priority 2021, published 2024).
